Results taken from patent publication US20240327393A1 (SIRONAX LTD., priority 2021, published 2024).

System: HT-1080 (ATCC, CCL-121) cells
Assay: HT-1080 cell viability assay with ferroptosis inducer RSL3 (Cell Titer-Glo)
Type: cell-based
Conditions: Homo sapiens; HT-1080 cells treated with RSL3; 3-fold, 10-point dilution, 1.1 μM highest concentration; Table 2; read-out: EC50 (nM), ferroptosis inhibitory activity
Summary of the method: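 HT-1080 cells (6000 per well) were cultured overnight at 37 °C, then co-treated with RSL3 and compound in a 3-fold, 10-point series topping at 1.1 μM. Viability was read by CellTiter-Glo luminescence and normalized to untreated controls. EC50 came from a sigmoidal non-linear regression fit.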

Row | EC50 [nM] | Compound
1 | 0.1 to 100 | COc1c(Nc2ccc(N3CCC(C(F)(F)F)CC3)cc2)ccc2c1CN(C)C2=O [Compound 301, 4-methoxy-2-methyl-5-((4-(4-(trifluoromethyl)piperidin-1-yl)phenyl)amino)isoindolin-1-one]
2 | 0.1 to 100 | Cn1c(=N)n(C)c2cc(Nc3ccc(N4CCC(C(F)(F)F)CC4)cc3)ccc21 [Compound 302, 2-imino-1,3-dimethyl-N-(4-(4-(trifluoromethyl)piperidin-1-yl)phenyl)-2,3-dihydro-1H-benzo[d]imidazol-5-amine]
3 | 0.1 to 100 | CN1Cc2cc(Nc3ccc(N4CCCCC4)c(N(C)C)c3)ccc2C1=O [Compound 303, 5-((3-(dimethylamino)-4-(piperidin-1-yl)phenyl)amino)-2-methylisoindolin-1-one]
4 | 0.1 to 100 | CN(C)c1cc(Nc2ccc3c(=O)n(C)[nH]c3c2)ccc1N1CCCCC1 [Compound 304, 6-((3-(dimethylamino)-4-(piperidin-1-yl)phenyl)amino)-2-methyl-1,2-dihydro-3H-indazol-3-one]
5 | 100 to 1000 | Cn1c(=O)n(C)c2cc(Nc3ccc(-n4ccnc4)cc3)ccc21 [Compound 305, 5-((4-(1H-imidazol-1-yl)phenyl)amino)-1,3-dimethyl-1,3-dihydro-2H-benzo[d]imidazol-2-one]
6 | 100 to 1000 | CCOC(=O)c1ccc(Nc2ccc3c(c2)n(C)c(=O)n3C)cc1 [Compound 306, ethyl 4-((1,3-dimethyl-2-oxo-2,3-dihydro-1H-benzo[d]imidazol-5-yl)amino)benzoate]
7 | 100 to 1000 | Cn1c(=O)n(C)c2cc(Nc3ccc4c(c3)OCCO4)ccc21 [Compound 307, 5-((2,3-dihydrobenzo[b][1,4]dioxin-6-yl)amino)-1,3-dimethyl-1,3-dihydro-2H-benzo[d]imidazol-2-one]
8 | 0.1 to 100 | CN(C)c1cccc(Nc2ccc3c(c2)n(C)c(=O)n3C)c1 [Compound 308, 5-((3-(dimethylamino)phenyl)amino)-1,3-dimethyl-1,3-dihydro-2H-benzo[d]imidazol-2-one]
9 | 0.1 to 100 | CCOc1ccc(Nc2ccc3c(c2)n(C)c(=O)n3C)cc1 [Compound 309, 5-((4-ethoxyphenyl)amino)-1,3-dimethyl-1,3-dihydro-2H-benzo[d]imidazol-2-one]
10 | 0.1 to 100 | Cn1c(=O)n(C)c2cc(Nc3ccc4nccn4c3)ccc21 [Compound 310, 5-(imidazo[1,2-a]pyridin-6-ylamino)-1,3-dimethyl-1,3-dihydro-2H-benzo[d]imidazol-2-one]
11 | 0.1 to 100 | CC1CCN(c2ccc(Nc3ccc4c(c3)C(C)(C)CN4C)cc2)CC1 [Compound 311, 1,3,3-trimethyl-N-(4-(4-methylpiperidin-1-yl)phenyl)indolin-5-amine]
12 | 0.1 to 100 | COc1cc(Nc2ccc3c(c2)n(C)c(=O)n3C)cc(OC)c1OC [Compound 312, 1,3-dimethyl-5-((3,4,5-trimethoxyphenyl)amino)-1,3-dihydro-2H-benzo[d]imidazol-2-one]
13 | 0.1 to 100 | C/N=C1\c2ccc(Nc3ccc(N4CCC(C(F)(F)F)CC4)cc3)cc2CN1C [Compound 313, 2-methyl-1-(methylimino)-N-(4-(4-(trifluoromethyl)piperidin-1-yl)phenyl)isoindolin-5-amine]
14 | 0.1 to 100 | Cn1nnc2ccc(Nc3ccc(N4CCC(C(F)(F)F)CC4)cc3)cc21 [Compound 314, 1-methyl-N-(4-(4-(trifluoromethyl)piperidin-1-yl)phenyl)-1H-benzo[d][1,2,3]triazol-6-amine]
15 | 0.1 to 100 | Cn1c(=O)oc2cc(Nc3ccc(N4C[C@H]5CC[C@@H]4C5)cc3)ccc21 [Compound 315, 6-((4-((1R,4S)-2-azabicyclo[2.2.1]heptan-2-yl)phenyl)amino)-3-methylbenzo[d] oxazol-2(3H)-one]
16 | 0.1 to 100 | Cn1c(=O)oc2cc(Nc3ccc(N4CC5(CCCC5)C4)cc3)ccc21 [Compound 316, 6-((4-(2-azaspiro[3.4]octan-2-yl)phenyl)amino)-3-methy/benzo[d]oxazol-2′3H-one]
17 | 0.1 to 100 | CC1CN(c2ccc(Nc3ccc4c(c3)oc(=O)n4C)cc2)CC(C)O1 (stereo not shown) [Compound 317, 6-((4-(2,6-dimethylmorpholino)phenyl)amino)-3-methylbenzo[d]oxazol-2(3H)-one]
18 | 0.1 to 100 | COCCOc1ccc(Nc2ccc3c(c2)n(C)c(=O)n3C)cc1 [Compound 318, 5-((4-(2-methoxyethoxy)phenyl)amino)-1,3-dimethyl-1,3-dihydro-2H-benzo[d] imidazol-2-one]
19 | 0.1 to 100 | COc1ncc(Nc2ccc3c(c2)n(C)c(=O)n3C)cn1 [Compound 319, 5-((2-methoxypyrimidin-5-yl)amino)-1,3-dimethyl-1,3-dihydro-2H-benzo[d] imidazole-2-one]
20 | 0.1 to 100 | COc1ccc(Nc2ccc3c(c2)n(C)c(=O)n3C)cn1 [Compound 320, 5-((6-methoxypyridin-3-yl)amino)-1,3-dimethyl-1,3-dihydro-2H-benzo[d] imidazol-2-one]

Row | EC50 [nM] | Compound
21 | 0.1 to 100 | CC1CCN(c2ccc(Nc3ccc4nnn(C)c4c3)cc2)CC1 [Compound 321, 1-methyl-N-(4-(4-methylpiperidin-1-yl)phenyl)-1H-benzo[d][1,2,3]triazol-6-amine]
22 | 0.1 to 100 | Cc1nc2ccc(Nc3ccc(N4CCC(C(F)(F)F)CC4)cc3)cc2o1 [Compound 323, 2-methyl-N-(4-(4-(trifluoromethyl)piperidin-1-yl)phenyl)benzo[d]oxazol-6-amine]
23 | 0.1 to 100 | Cn1c(=O)oc2cc(Nc3ccc(N4CC(C)(C)C4)cc3)ccc21 [Compound 324, 6-((4-(3,3-dimethylazetidin-1-yl)phenyl)amino)-3-methylbenzo[d]oxazol-2(3H)-one]
24 | 0.1 to 100 | CC1CCC(C)N1c1ccc(Nc2ccc3c(c2)oc(=O)n3C)cc1 (stereo not shown) [Compound 325, 6-((4-(2,5-dimethylpyrrolidin-1-yl)phenyl)amino)-3-methylbenzo[d]oxazol-2(3H)-one]
25 | 0.1 to 100 | Cc1cc(Nc2ccc(N3CCC(C(F)(F)F)CC3)cc2)cc2c1C(=O)N(C)C2 [Compound 326, 2,7-dimethyl-5-((4-(4-(trifluoromethyl)piperidin-1-yl)phenyl)amino) isoindolin-1-one]
26 | 0.1 to 100 | Cn1c(=O)oc2cc(Nc3ccc(N4CC5(CCC5)C4)cc3)ccc21 [Compound 327, 6-((4-(2-azaspiro[3.3]heptan-2-yl)phenyl)amino)-3-methylbenzo[d]oxazol-2(3H)-one]
27 | 0.1 to 100 | CCn1c(=O)n(CC)c2cc(Nc3ccc(N4CCC(C)CC4)cc3)ccc21 [Compound 328, 1,3-diethyl-5-((4-(4-methylpiperidin-1-yl)phenyl)amino)-1,3-dihydro-2H-benzo[d]imidazol-2-one]
28 | 0.1 to 100 | CC1CCN(c2ccc(Nc3ccc4c(ccn4C)c3)cc2)CC1 [Compound 329, 1-methyl-N-(4-(4-methylpiperidin-1-yl)phenyl)-1H-indol-5-amine]
29 | 0.1 to 100 | CC1CCN(c2ccc(Nc3ccc4ccn(C)c4c3)cc2)CC1 [Compound 330, 1-methyl-N-(4-(4-methylpiperidin-1-yl)phenyl)-1H-indol-6-amine]
30 | 100 to 1000 | Cn1cnc2cc(Nc3ccc4c(c3)n(C)c(=O)n4C)ccc21 [Compound 331, 1,3-dimethyl-5-((1-methyl-1H-benzo[d]imidazol-5-yl)amino)-1,3-dihydro-2H-benzo[d]imidazol-2-one]
31 | 0.1 to 100 | Cn1c(=O)n(C)c2cc(Nc3ccc(N4CCC(O)(C(F)(F)F)CC4)cc3)ccc21 [Compound 332, 5-((4-(4-hydroxy-4-(trifluoromethyl)piperidin-1-yl)phenyl)amino)-1,3-dimethyl-1,3-dihydro-2H-benzo[d]imidazol-2-one]
32 | 0.1 to 100 | Cn1c(=O)oc2cc(Nc3ccc(N4CCC(O)(C(F)(F)F)CC4)cc3)ccc21 [Compound 333, 6-((4-(4-hydroxy-4-(trifluoromethyl)piperidin-1-yl)phenyl)amino)-3-methylbenzo[d]oxazol-2(3H)-one]
33 | 0.1 to 100 | COCCn1c(=O)n(C)c2ccc(Nc3ccc(N4CCC(C(F)(F)F)CC4)cc3)cc21 [Compound 334, 3-(2-methoxyethyl)-1-methyl-5-((4-(4-(trifluoromethyl)piperidin-1-yl)phenyl)amino)-1,3-dihydro-2H-benzo[d]imidazol-2-one]
34 | 0.1 to 100 | CN1C(=O)C(C)(C)c2ccc(Nc3ccc(N4CCC(C(F)(F)F)CC4)cc3)cc21 [Compound 335, 1,3,3-trimethyl-6-((4-(4-(trifluoromethyl)piperidin-1-yl)phenyl)amino) indolin-2-one]
35 | 0.1 to 100 | Cn1cnc2cc(Nc3ccc(N4CCC(C(F)(F)F)CC4)cc3)ccc21 [Compound 336, 1-methyl-N-(4-(4-(trifluoromethyl)piperidin-1-yl)phenyl)-1H-benzo[d]imidazol-5-amine]
36 | 0.1 to 100 | FC(F)(F)C1CCN(c2ccc(Nc3ccc4occc4c3)cc2)CC1 [Compound 337, N-(4-(4-(trifluoromethyl)piperidin-1-yl)phenyl)benzofuran-5-amine]
37 | 0.1 to 100 | CC1CCN(c2ccc(Nc3ccc4c(c3)N(C)CC4(C)C)cc2)CC1 [Compound 338, 1,3,3-trimethyl-N-(4-(4-methylpiperidin-1-yl)phenyl)indolin-6-amine]
38 | 0.1 to 100 | Cc1nc2ccc(Nc3ccc(N4CCC(C)CC4)cc3)cc2o1 [Compound 339, 2-methyl-N-(4-(4-methylpiperidin-1-yl)phenyl)benzo[d]oxazol-6-amine]
39 | 0.1 to 100 | C/N=c1\n(C)c2ccc(Nc3ccc(N4CCC(C(F)(F)F)CC4)cc3)cc2n1C [Compound 340, 1,3-dimethyl-2-(methylimino)-N-(4-(4-(trifluoromethyl)piperidin-1-yl)phenyl)-2,3-dihydro-1H-benzo[d]imidazol-5-amine]
40 | 0.1 to 100 | Cn1c(=O)n(C)c2cc(Nc3ccc(N4CCC(C)(O)CC4)cc3)ccc21 [Compound 341, 5-((4-(4-hydroxy-4-methylpiperidin-1-yl)phenyl)amino)-1,3-dimethyl-1,3-dihydro-2H-benzo[d]imidazol-2-one]
